# In patent US10538512B2, “Aminoacylindazole immunomodulators for treatment of autoimmune diseases” (The Rockefeller University, priority 2016, dated 2020):
# Biological target: T1, Human FXIIa (Homo sapiens, UniProt P00748)
# T1 construct: active coagulation factor XII (FXIIa); purchased Enzyme Research Labs
# T1 sequence (P00748 373-615 limits assumed): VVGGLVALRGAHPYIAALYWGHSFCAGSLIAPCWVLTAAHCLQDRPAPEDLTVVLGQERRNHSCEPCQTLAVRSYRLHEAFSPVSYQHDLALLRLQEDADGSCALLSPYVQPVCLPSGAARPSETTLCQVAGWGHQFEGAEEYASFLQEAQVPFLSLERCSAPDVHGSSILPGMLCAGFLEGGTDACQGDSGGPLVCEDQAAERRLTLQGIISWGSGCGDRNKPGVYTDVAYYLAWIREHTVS
# T1 sequence (P00748 20-372 partner limits assumed): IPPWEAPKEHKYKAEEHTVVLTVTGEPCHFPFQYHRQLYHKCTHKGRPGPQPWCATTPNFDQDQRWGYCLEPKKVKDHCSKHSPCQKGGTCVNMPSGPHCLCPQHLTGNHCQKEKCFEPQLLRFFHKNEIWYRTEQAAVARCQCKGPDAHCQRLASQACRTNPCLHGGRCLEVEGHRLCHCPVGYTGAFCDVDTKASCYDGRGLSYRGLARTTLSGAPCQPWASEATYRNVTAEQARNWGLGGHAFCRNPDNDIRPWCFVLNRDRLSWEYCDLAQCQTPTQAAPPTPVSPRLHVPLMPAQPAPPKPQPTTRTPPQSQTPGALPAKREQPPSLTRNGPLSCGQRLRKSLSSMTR
# Test: Factor XIIa (FXIIa) inhibitory activity, chromogenic substrate assay
# Format: biochemical
# Conditions: Human FXIIa 12.5 nM, Pefachrome XIIa 400 μM, 10 min preincubation
# Method: Factor XIIa (FXIIa) Inhibitory Activity:
# In a 96-well clear bottom plate, 80 μl of assay buffer was added to each well. Assay buffer consists of 0.5× Hank's Balanced Salt Solution (Invitrogen), buffered with 25 mM HEPES pH 7.4 (Invitrogen) and 0.5× Tris-buffered saline with Tween-20 0.05% (Santa Cruz Biotechnology). Test compounds were first dissolved in DMSO (Sigma) and then 4 μl were added to test wells containing assay buffer. Serial dilutions using an automated multi-channel pipette were used to generate a concentration range of approximately 1-100 μM. […] 80 μl of this enzyme solution was added to the assay wells. The enzyme/compound mixtures were incubated for 10 minutes at room temperature. Chromogenic substrate (Pefachrome XIIa; Enzyme Research Labs) was added to assay wells at a final concentration of 400 μM. The assay plate was spun for 1 minute at 1500 g and then read at 37° C. in a SpectraMax M2 plate reader (λ=405 nm). Activity was quantified as the rate of change in absorbance, which corresponds to the rate of substrate cleavage.
row,IC50 [µM],SMILES
1,> 100,"CO[C@H]1CCc2nn(C(=O)[C@@H]3CCNc4ccc(F)cc43)c(N)c2C1 (single isomer, unassigned) [Example 176, ((5S*)-3-amino-5-methoxy-4,5,6,7-tetrahydroindazol-2-yl)((4R*)-6-fluoro-1,2,3,4-tetrahydroquinolin-4-yl)methanone]"
2,0.01,"CCc1cc2c(C(=O)n3nc4c(c3N)CCCC4)cccc2n1C (single isomer, unassigned) [Example 66, (3-amino-4,5,6,7-tetrahydroindazol-2-yl)(2-ethyl-1-methyl-1H-indol-4-yl)methanone]"
3,33,"Nc1c2c(nn1C(=O)[C@H]1CCNc3ccc(F)cc31)CC[C@H](O)C2 (single isomer, unassigned) [Example 133, ((5S*)-3-amino-5-hydroxy-4,5,6,7-tetrahydroindazol-2-yl)((4S*)-6-fluoro-1,2,3,4-tetrahydroquinolin-4-yl)methanone]"
4,> 50,"Nc1nn(C(=O)C2CCNc3cc(Cl)ccc32)c2c1CCCC2 (stereo not shown) [Example 104, (3-amino-4,5,6,7-tetrahydroindazol-1-yl)(7-chloro-1,2,3,4-tetrahydroquinolin-4-yl)methanone]"
5,13,Nc1c2c(nn1C(=O)c1ccnc3ccccc13)CCCC2 [Example 158]
6,0.04,"Nc1c2c(nn1C(=O)[C@H]1CCNc3c(Cl)cccc31)CC[C@@H](O)C2 (single isomer, unassigned) [Example 204, ((5R*)-3-amino-5-hydroxy-4,5,6,7-tetrahydroindazol-2-yl)((4S*)-8-chloro-1,2,3,4-tetrahydroquinolin-4-yl)methanone]"
7,0.04,"CCc1cc2c([nH]1)CCCC2C(=O)n1nc2c(c1N)CCCC2 (stereo not shown) [Example 82, (3-amino-4,5,6,7-tetrahydroindazol-2-yl)(2-ethyl-4,5,6,7-tetrahydro-1H-indol-4-yl)methanone]"
8,23,"Nc1nn(C(=O)[C@H]2CCNc3ccc(Cl)cc32)c2c1C[C@H](O)CC2 (single isomer, unassigned) [Example 150, ((5R*)-3-amino-5-hydroxy-4,5,6,7-tetrahydroindazol-1-yl)((4S*)-6-chloro-1,2,3,4-tetrahydroquinolin-4-yl)methanone]"
9,> 80,"Nc1c2c(nn1C(=O)C1CCNc3ccc(F)cc31)CCC(F)(F)C2 (single isomer, unassigned) [Example 174, (R*)-(3-amino-5,5-difluoro-4,5,6,7-tetrahydroindazol-2-yl)(6-fluoro-1,2,3,4-tetrahydroquinolin-4-yl)methanone]"
10,0.18,"Cn1c(Cl)cc2c1CCCC2C(=O)n1nc2c(c1N)CCCC2 (stereo not shown) [Example 112, (3-amino-4,5,6,7-tetrahydroindazol-2-yl)(2-chloro-1-methyl-4,5,6,7-tetrahydro-1H-indol-4-yl)methanone]"
11,> 150,"Cc1cccc2c1NCC[C@@H]2C(=O)n1nc(N)c2c1C[C@H](O)CC2 (single isomer, unassigned) [Example 201, ((6R*)-3-amino-6-hydroxy-4,5,6,7-tetrahydroindazol-1-yl)((4S*)-8-methyl-1,2,3,4-tetrahydroquinolin-4-yl)methanone]"
12,0.05,"CCc1cc2c(C(=O)n3nc4c(c3N)CCCC4)ccnc2[nH]1 [Example 113, (3-amino-4,5,6,7-tetrahydro-2H-indazol-2-yl)(2-ethyl-1H-pyrrolo[2,3-b]pyridin-4-yl)methanone]"
13,0.05,"COC1CCc2nn(C(=O)c3cccc4[nH]c(C)cc34)c(N)c2C1 (stereo not shown) [Example 119, (3-amino-5-methoxy-4,5,6,7-tetrahydro-2H-indazol-2-yl)(2-methyl-1H-indol-4-yl)methanone]"
14,> 100,"Nc1nn(C(=O)[C@@H]2CCNc3c(Cl)cccc32)c2c1CC[C@@H](O)C2 (single isomer, unassigned) [Example 212, ((6R*)-3-amino-6-hydroxy-4,5,6,7-tetrahydroindazol-1-yl)((4R*)-8-chloro-1,2,3,4-tetrahydroquinolin-4-yl)methanone]"
15,> 100,"Nc1c2c(nn1C(=O)[C@@H]1CCNc3ccc(F)cc31)C[C@H](O)CC2 (single isomer, unassigned) [Example 184, ((6R*)-3-amino-6-hydroxy-4,5,6,7-tetrahydroindazol-2-yl)((4R*)-6-fluoro-1,2,3,4-tetrahydroquinolin-4-yl)methanone]"
16,65,"Nc1nn(C(=O)C2CCNc3ccc(F)cc32)c2c1CC(F)CC2 (single isomer, unassigned) [Example 142, ((5S*)-3-amino-5-fluoro-4,5,6,7-tetrahydroindazol-1-yl)((4R/S)-6-fluoro-1,2,3,4-tetrahydroquinolin-4-yl)methanone]"

row,IC50 [µM],SMILES
1,0.02,"Cc1cc2c(C(=O)n3nc4c(c3N)CCCC4)cccc2n1C(C)C [Example 49, (3-amino-4,5,6,7-tetrahydroindazol-2-yl)(1-isopropyl-2-methyl-1H-indol-4-yl)methanone]"
2,0.06,"Cc1cccc2c1NCC[C@@H]2C(=O)n1nc2c(c1N)C[C@@H](N)CC2 (relative stereo) [Example 213, ((5S*)-3,5-diamino-4,5,6,7-tetrahydroindazol-2-yl)((4S*)-8-methyl-1,2,3,4-tetrahydroquinolin-4-yl)methanone]"
3,0.06,"Cc1cc2c(C(=O)n3nc4c(c3N)CCCC4)cccc2s1 [Example 57, (3-Amino-4,5,6,7-tetrahydro-indazol-2-yl)-(2-methyl-benzo[b]thiophen-4-yl)-methanone]"
4,7.5,"Cc1cccc2c1NCCC2C(=O)n1nc(N)c2c1CCC=C2 (stereo not shown) [Example 196, (3-amino-6,7-dihydroindazol-1-yl)(8-methyl-1,2,3,4-tetrahydroquinolin-4-yl)methanone]"
5,3.3,"Cc1cccc2c1NCC[C@H]2C(=O)n1nc2c(c1N)CC[C@@H](O)C2 (single isomer, unassigned) [Example 200, ((6R*)-3-amino-6-hydroxy-4,5,6,7-tetrahydroindazol-2-yl)((4R*)-8-methyl-1,2,3,4-tetrahydroquinolin-4-yl)methanone]"
6,> 100,"Nc1nn(C(=O)C2CCCc3[nH]ccc32)c2c1CCCC2 (stereo not shown) [Example 93, (3-amino-4,5,6,7-tetrahydroindazol-1-yl)(4,5,6,7-tetrahydro-1H-indol-4-yl)methanone]"
7,4,"Nc1c2c(nn1C(=O)c1cccc3ccccc13)CCCC2 [Example 39, (3-amino-4,5,6,7-tetrahydroindazol-2-yl)(naphthalen-1-yl)methanone]"
8,3,"Nc1c2c(nn1C(=O)[C@H]1CCNc3ccc(F)cc31)CC[C@@H](N)C2 (stereo in doubt) [Example 189, ((5R*)-3,5-diamino-4,5,6,7-tetrahydroindazol-2-yl)((4S*)-6-fluoro-1,2,3,4-tetrahydroquinolin-4-yl)methanone]"
9,0.15,"CN1CCC(C(=O)n2nc3c(c2N)CCCC3)c2ccccc21 (single isomer, unassigned) [Example 72, (S*)-(3-amino-4,5,6,7-tetrahydroindazol-2-yl)(1-methyl-1,2,3,4-tetrahydroquinolin-4-yl)methanone]"
10,0.15,Cc1cc2c(C(=O)n3cc4c(n3)CCCC4)cccc2[nH]1 [Example 159]
11,> 55,"Nc1nn(C(=O)C2CCNc3ccc(F)cc32)c2c1CC(NC(=O)OCc1ccccc1)CC2 (single isomer, unassigned) [Example 191, benzyl N-[(5S*)-3-amino-1-[(6-fluoro-1,2,3,4-tetrahydroquinolin-4-yl)carbonyl]-4,5,6,7-tetrahydro-1H-indazol-5-yl]carbamate]"
12,4,"Nc1c2c(nn1C(=O)[C@@H]1CCNc3ccc(F)cc31)CC[C@H](N)C2 (stereo in doubt) [Example 193, ((5S*)-3,5-diamino-4,5,6,7-tetrahydroindazol-2-yl)((4R*)-6-fluoro-1,2,3,4-tetrahydroquinolin-4-yl)methanone]"
13,15,"Cc1csc(C)c1C(=O)n1nc2c(c1N)CCCC2 (single isomer, unassigned) [Example 16, (3-Amino-4,5,6,7-tetrahydroindazol-2-yl)(2,4-dimethylthiophen-3-yl)methanone]"
14,85,"Nc1nn(C(=O)C2CCNc3ccc(F)cc32)c2c1CC(F)CC2 (single isomer, unassigned) [Example 139, ((5R*)-3-amino-5-fluoro-4,5,6,7-tetrahydroindazol-1-yl)((4RS)-6-fluoro-1,2,3,4-tetrahydroquinolin-4-yl)methanone]"
15,> 100,"CCc1cc2c(C(=O)n3nc(N)c4c3CCCC4)ccnc2[nH]1 [Example 114, (3-amino-4,5,6,7-tetrahydro-1H-indazol-1-yl)(2-ethyl-1H-pyrrolo[2,3-b]pyridin-4-yl)methanone]"
